Reference: patent publication US20240041042A1, “1-(PYRIDYL)-5-AZINYLPYRAZOLE DERIVATIVES, AND THEIR USE FOR CONTROL OF UNDESIRED PLANT GROWTH” (Bayer Aktiengesellschaft, priority 2020, published 2024)
Where two headings read alike, the source gives them in different places.

Tests used:
Assay type in all cases: in vivo
Lolium rigidum (LOLRI) = test: Post-emergence herbicidal action against LOLRI
In short: (§1)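 Values are percent visual activity (0% like control, 100% plants dead) after about 3 weeks in the greenhouse. Treatment: post-emergence spray at one-leaf stage, 600 l/ha spray volume, 0.5% additive, doses 320 g/ha or lower.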

Zea mays (ZEAMX) [1] = details: for Post-emergence action against ZEAMX in %: crop plant compatibility, effect vs untreated controls
In short: (§2)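 Visual rating (% effect vs. untreated plants; 100% = plant death) made about 3 weeks after treatment. Plants had been sprayed at one-leaf stage, 2–3 weeks post-sowing, with aqueous WP/EC preparations containing 0.5% additive, 600 l/ha water volume; a, b, c mark dose levels.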

[2] = system: Triticum aestivum (TRZAS); details: crop plant compatibility, effect vs untreated controls
In short: as §2

Oryza sativa (ORYSA) [3] = details: crop plant compatibility
In short: as §2

[4] = system: Digitaria sanguinalis (DIGSA); test: Post-emergence herbicidal action against DIGSA; details: 320 g/ha, visual rating about 3 weeks after treatment
In short: as §1

[5] = system: Verconica persica (VERPE); test: Post-emergence herbicidal action against VERPE
In short: as §1

[6] = system: Matricaria inodora (MATIN); test: Post-emergence herbicidal action against MATIN; details: dosage 320 g/ha
In short: as §1

[7] = system: Echinochloa crus-galli (ECHCG); test: Post-emergence herbicidal action against ECHCG
In short: as §1

Brassica napus (BRSNW) [8] = test: Post-emergence crop plant compatibility, BRSNW; details: effect in comparison to untreated controls
Description: (§3) Seeds of monocotyledonous and dicotyledonous weeds and crop plants are placed in sandy loam in plastic or organic planting pots, covered with soil and cultivated in a greenhouse under controlled growth conditions. 2 to 3 weeks after sowing, the test plants are treated at the one-leaf stage. The compounds of the invention, formulated in the form of wettable powders (WP) or as emulsion concentrates (EC), are then sprayed onto the green parts of the plants as aqueous suspension or emulsion with addition of 0.5% additive at a water application rate of 600 l/ha (converted). After the test plants have been kept in the greenhouse under optimum growth conditions for about 3 weeks, the activity of the preparations is rated visually in comparison to untreated controls. For example, 100% activity=the plants have died, 0% activity=like control plants.
(§4) The observed effects on selected crop plants are reported here in comparison to the untreated controls (values in %). The appendices “a”, “b” and “c” give differentiation by dosage used with otherwise the same crop plants tested.

Setaria viridis (SETVI) = test: Post-emergence herbicidal action against SETVI
In short: as §1

[9] = system: Abutilon theophrasti (ABUTH); test: Post-emergence herbicidal action against ABUTH; details: 320 g/ha, visual rating about 3 weeks after treatment vs untreated controls (100% = plants have died, 0% = like control plants)
In short: as §1

[10] = system: Polygonum convolvulus (POLCO); test: Post-emergence herbicidal action against POLCO; details: dosage 320 g/ha
In short: as §1

Avena fatua (AVEFA) = test: Post-emergence herbicidal action against AVEFA; details: visual rating about 3 weeks after treatment
In short: as §1

[11] = system: Alopecurus myosuroides (ALOMY); test: Post-emergence herbicidal action against ALOMY; details: visual rating about 3 weeks after treatment vs untreated controls (100% = plants have died, 0% = like control plants)
In short: as §1

Viola tricolor (VIOTR) [12] = test: Post-emergence herbicidal action against VIOTR
In short: as §1

[13] = system: Pharbitis purpurea (PHBPU); test: Post-emergence herbicidal action against PHBPU
In short: as §1

Zea mays (ZEAMX) [14] = details: pre-emergence, crop plant compatibility, in comparison to untreated controls
In short: (§5)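 Scoring: visual, % of untreated control, about 3 weeks after a pre-emergence application to the soil surface. Application used WP or EC formulations diluted in water with 0.5% additive at 600 l/ha; dosage levels are marked by suffixes a, b and c.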

Brassica napus (BRSNW) [15] = details: crop plant compatibility, in comparison to untreated controls
In short: as §5

[16] = system: Triticum aestivum (TRZAS); details: pre-emergence, crop plant compatibility, in comparison to untreated controls
In short: as §5

Oryza sativa (ORYSA) [17] = details: pre-emergence, crop plant compatibility, in comparison to untreated controls
In short: as §5

Glycine max (GLXMA) [18] = details: pre-emergence, 80 g/ha, crop plant compatibility, in comparison to untreated controls
In short: as §5

[19] = system: Verconica persica (VERPE); test: Pre-emergence herbicidal action against VERPE; details: dosage 320 g/ha
In short: (§6)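 Pre-emergence soil-surface spray of compound, formulated as wettable powder or emulsion concentrate, in aqueous suspension or emulsion with 0.5% additive (600 l/ha; rate 320 g/ha or less). Activity rated visually after roughly 3 weeks in the greenhouse as a percentage of untreated controls, 0% meaning no difference.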

Glycine max (GLXMA) [20] = test: Post-emergence crop plant compatibility, GLXMA; details: post-emergence, 80 g/ha, effect in comparison to untreated controls
Description: as §3, §4

Viola tricolor (VIOTR) [21] = test: Pre-emergence herbicidal action against VIOTR; details: 320 g/ha, Viola tricolor
In short: as §6

[22] = 80 g/ha, effect in comparison to untreated controls
[23] = 320 g/ha, effect in comparison to untreated controls

O=C(COc1nn(-c2ncccc2F)c(-c2ccc(F)nc2)c1C1CC1)OCC1CCOC1 (stereo not shown) [Example I-289]
Post-emergence action against LOLRI in % (Lolium rigidum (LOLRI); dosage 80 g/ha): 80%
Post-emergence action against LOLRI in % (Lolium rigidum (LOLRI); dosage 320 g/ha): 90%
Post-emergence action against ZEAMX in % (crop plant compatibility) (Zea mays (ZEAMX) [1]; 20 g/ha, ZEAMX, effect in comparison to untreated controls): 0%
Post-emergence action against ZEAMX in % (Zea mays (ZEAMX) [1]; 80 g/ha): 10%
Post-emergence action against TRZAS in % ([2]; 20 g/ha): 20%
Post-emergence action against ORYSA in % (Oryza sativa (ORYSA) [3]; 20 g/ha, effect vs untreated controls): 0%
Post-emergence action against ORYSA in % (Oryza sativa (ORYSA) [3]; [22]): 10%
Post-emergence action against DIGSA in % [4]: 80%
Post-emergence action against VERPE in % ([5]; 320 g/ha, VERPE): 80%
Post-emergence action against VERPE in % ([5]; dosage 80 g/ha): 80%
Post-emergence action against MATIN in % [6]: 90%
Post-emergence action against ECHCG in % ([7]; dosage 80 g/ha): 80%
Post-emergence action against ECHCG in % ([7]; dosage 320 g/ha): 80%
Post-emergence action against BRSNW in % (Brassica napus (BRSNW) [8]; 20 g/ha): 20%
Post-emergence action against SETVI in % (Setaria viridis (SETVI); dosage 80 g/ha): 90%
Post-emergence action against SETVI in % (Setaria viridis (SETVI); dosage 320 g/ha): 90%
Post-emergence action against ABUTH in % [9]: 80%
Post-emergence action against POLCO in % [10]: 80%
Post-emergence action against AVEFA in % (Avena fatua (AVEFA); 80 g/ha): 80%
Post-emergence action against AVEFA in % (Avena fatua (AVEFA); 320 g/ha): 90%
Post-emergence action against ALOMY in % ([11]; 80 g/ha): 80%
Post-emergence action against ALOMY in % ([11]; 320 g/ha): 90%
Post-emergence action against VIOTR in % (Viola tricolor (VIOTR) [12]; 80 g/ha): 80%
Post-emergence action against VIOTR in % (Viola tricolor (VIOTR) [12]; 320 g/ha): 80%
Post-emergence action against PHBPU in % ([13]; dosage 80 g/ha): 80%
Post-emergence action against PHBPU in % ([13]; dosage 320 g/ha): 80%

O=C(O)C1CCN(C(=O)COc2nn(-c3ccccn3)c(-c3ccc(F)nc3)c2Br)CC1 [Example I-62]
Post-emergence action against ZEAMX in % (Zea mays (ZEAMX) [1]; 320 g/ha): 20%
Post-emergence action against TRZAS in % ([2]; 80 g/ha): 0%
Post-emergence action against TRZAS in % ([2]; 320 g/ha): 0%
Post-emergence action against ORYSA in % (Oryza sativa (ORYSA) [3]; [22]): 0%
Post-emergence action against ORYSA in % (Oryza sativa (ORYSA) [3]; [23]): 0%
Pre-emergence action against ZEAMX in % (Zea mays (ZEAMX) [14]; 80 g/ha): 0%
Pre-emergence action against BRSNW in % (Brassica napus (BRSNW) [15]; 80 g/ha): 0%
Pre-emergence action against TRZAS in % ([16]; 80 g/ha): 0%
Pre-emergence action against TRZAS in % ([16]; 320 g/ha): 0%
Pre-emergence action against ORYSA in % (Oryza sativa (ORYSA) [17]; 80 g/ha): 0%
Pre-emergence action against ORYSA in % (Oryza sativa (ORYSA) [17]; 320 g/ha): 0%
Post-emergence action against BRSNW in % (Brassica napus (BRSNW) [8]; 80 g/ha): 20%

CCOC(=O)COc1nn(-c2ccc(Br)c(C)n2)c(-c2cncc(F)c2)c1Br [Example I-161]
Post-emergence action against ZEAMX in % (Zea mays (ZEAMX) [1]; 80 g/ha): 10%
Post-emergence action against ZEAMX in % (Zea mays (ZEAMX) [1]; 320 g/ha): 10%
Post-emergence action against TRZAS in % ([2]; 80 g/ha): 0%
Post-emergence action against TRZAS in % ([2]; 320 g/ha): 10%
Post-emergence action against ORYSA in % (Oryza sativa (ORYSA) [3]; [22]): 0%
Post-emergence action against ORYSA in % (Oryza sativa (ORYSA) [3]; [23]): 0%
Pre-emergence action against GLXMA in % (Glycine max (GLXMA) [18]): 0%
Pre-emergence action against ZEAMX in % (Zea mays (ZEAMX) [14]; 80 g/ha): 20%
Pre-emergence action against ZEAMX in % (Zea mays (ZEAMX) [14]; 320 g/ha): 20%
Pre-emergence action against BRSNW in % (Brassica napus (BRSNW) [15]; 80 g/ha): 10%
Pre-emergence action against BRSNW in % (Brassica napus (BRSNW) [15]; 320 g/ha): 10%
Pre-emergence action against TRZAS in % ([16]; 80 g/ha): 0%
Pre-emergence action against TRZAS in % ([16]; 320 g/ha): 20%
Pre-emergence action against ORYSA in % (Oryza sativa (ORYSA) [17]; 80 g/ha): 0%
Pre-emergence action against ORYSA in % (Oryza sativa (ORYSA) [17]; 320 g/ha): 0%
Post-emergence action against VERPE in % ([5]; 320 g/ha, VERPE): 80%
Pre-emergence action against VERPE in % [19]: 80%
Post-emergence action against GLXMA in % (Glycine max (GLXMA) [20]): 0%
Pre-emergence action against VIOTR in % (Viola tricolor (VIOTR) [21]): 90%
Post-emergence action against VIOTR in % (Viola tricolor (VIOTR) [12]; 320 g/ha): 80%
